Measurements from patent US20260274837A1, “PESTICIDALLY ACTIVE HETEROCYCLIC DERIVATIVES WITH SULFUR CONTAINING SUBSTITUENTS” (SYNGENTA CROP PROTECTION AG, priority 2023, published 2026).

What was measured:
Format in all cases: in vivo
[1] = system: Chilo suppressalis; assay: Activity against Chilo suppressalis (striped rice stemborer), artificial diet in 24-well plates; details: 144 h, application rate 200 ppm, L2 larvae, assessed 6 days after infestation vs untreated, read-out: control (at least one of mortality, anti-feedant effect, growth inhibition)
Procedure: Example B1: Activity Against Chilo suppressalis (Striped Rice Stemborer)
24-well microtiter plates with artificial diet were treated with aqueous test solutions prepared from 10′000 ppm DMSO stock solutions by pipetting. After drying, the plates were infested with L2 larvae (6-8 per well). The samples were assessed for mortality, anti-feeding effect, and growth inhibition in comparison to untreated samples 6 days after infestation. Control of Chilo suppressalis by a test sample is given when at least one of the categories mortality, anti-feedant effect, and growth inhibition is higher than the untreated sample.

[2] = system: Plutella xylostella; assay: Activity against Plutella xylostella (diamond back moth), artificial diet in 24-well plates; details: 192 h, application rate 200 ppm, eggs, assessed 8 days after infestation vs untreated, read-out: effect in at least one of the two categories (mortality or growth inhibition)
Procedure: Example B3: Activity Against Plutella xylostella (Diamond Back Moth)
24-well microtiter plates with artificial diet were treated with aqueous test solutions prepared from 10′000 ppm DMSO stock solutions by pipetting. After drying, Plutella eggs were pipetted through a plastic stencil onto a gel blotting paper and the plate was closed with it. The samples were assessed for mortality and growth inhibition in comparison to untreated samples 8 days after infestation.

[3] = system: Diabrotica balteata; assay: Activity against Diabrotica balteata (corn root worm), sprayed maize sprouts on agar; details: 96 h, application rate 200 ppm, L2 larvae, assessed 4 days after infestation vs untreated, read-out: effect in at least one of the two categories (mortality or growth inhibition)
Procedure: Example B2: Activity Against Diabrotica Balteata (Corn Root Worm)
Maize sprouts placed onto an agar layer in 24-well microtiter plates were treated with aqueous test solutions prepared from 10′000 ppm DMSO stock solutions by spraying. After drying, the plates were infested with L2 larvae (6 to 10 per well). The samples were assessed for mortality and growth inhibition in comparison to untreated samples 4 days after infestation.

[4] = system: Spodoptera littoralis; assay: Activity against Spodoptera littoralis (Egyptian cotton leaf worm), sprayed cotton leaf discs; details: foliar, 72 h, application rate 200 ppm, L1 larvae, assessed 3 days after infestation vs untreated, read-out: control (at least one of mortality, anti-feedant effect, growth inhibition)
Procedure: Example B4: Activity Against Spodoptera littoralis (Egyptian Cotton Leaf Worm)
Cotton leaf discs were placed onto agar in 24-well microtiter plates and sprayed with aqueous test solutions prepared from 10′000 ppm DMSO stock solutions. After drying the leaf discs were infested with five L1 larvae. The samples were assessed for mortality, anti-feeding effect, and growth inhibition in comparison to untreated samples 3 days after infestation. Control of Spodoptera littoralis by a test sample is given when at least one of the categories mortality, anti-feedant effect, and growth inhibition is higher than the untreated sample.

CCS(=O)(=O)c1c(-c2coc3cc(C(F)(F)F)ccc3c2=O)nc2cc(C(F)(F)F)ccn12 [P.1, 3-[3-ethylsulfonyl-7-(trifluoromethyl)imidazo[1,2-a]pyridin-2-yl]-7-(trifluoromethyl)chromen-4-one]
≥ 80%: percent control (mortality, anti-feedant effect or growth inhibition) at 200 ppm [1] | percent effect (mortality or growth inhibition) at 200 ppm [2] | percent effect (mortality or growth inhibition) at 200 ppm [3] | percent control (mortality, anti-feedant effect or growth inhibition) at 200 ppm [4]
